Patent publication US9907859B2 (priority 2010, dated 2018)
≈ marks a conversion by molar mass, not a printed value. Like-named read-outs stand apart in the source and are kept apart here.

Columns and labels:
[1] = female, CD-1, mouse, in vivo; for Cmax: iv
VV = conditions: in vivo; cited from earlier work
[2] = both, cynomolgus monkey, in vivo; for AUCINF—obs / Cmax / CL / T1/2 / Tmax: iv
ECTV = conditions: in vivo; cited from earlier work
in vivo [3] = conditions: for AUC(0-t) / Cmax / half-life / clearance: iv
physchem = conditions: 70 °C, aqueous with cosolvent or surfactant or cyclodextrin
[4] = in vivo
camelpox = conditions: read-out: 50% effective concentration [EC50], inhibition of virus replication; cited from earlier work
in vivo [5] = conditions: both, cynomolgus monkey, iv, 1 mg/kg

O=C(NN1C(=O)C2C3C=CC(C4CC34)C2C1=O)c1ccc(C(F)(F)F)cc1 (stereo not drawn) [ST-246, 4-trifluoromethyl-N-(3,3a,4,4a,5,5a,6,6a-octahydro-1,3-dioxo-4,6-ethenocycloprop[f]isoindol-2(1H)-yl)-benzamide]
average plasma concentration at the end of infusion ([1]; 75 mg/kg): 238, 333 ng/mL
Cmax ([1]; 10 mg/kg): 64 µg/mL
Cmax ([1]; 30 mg/kg): 147.333 µg/mL
Cmax ([1]; 75 mg/kg): 238 µg/mL
preventing or reducing mortality (VV): highly effective in preventing or reducing mortality
toxicity in animal model (VV): nontoxic
Cmax higher for 4 hour vs 6 hour infusions [2]: approximately 50%
exposure higher for 4 hour vs 6 hour infusions [2]: approximately 20%
terminal elimination half-life [2]: 9.1 h
AUCINF—obs ([2]; 1 mg/kg): 1.94 ± 0.46 µg·h/mL
Cmax ([2]; 1 mg/kg): 0.384 ± 0.112 µg/mL
AUCINF—obs ([2]; 3 mg/kg): 5.83 ± 0.87 µg·h/mL
Cmax ([2]; 3 mg/kg): 1.05 ± 0.19 µg/mL
CL ([2]; 10 mg/kg): 7.15 ± 1.23 mL/min/kg
T1/2 ([2]; 10 mg/kg): 8.9 ± 2.5 h
AUCINF—obs ([2]; 15 mg/kg): 48.7 ± 7.5 µg·h/mL
Cmax ([2]; 15 mg/kg): 9.08 ± 0.95 µg/mL
AUCINF—obs ([2]; 20 mg/kg): 47.9 ± 6.1 µg·h/mL
CL ([2]; 20 mg/kg): 7.22 ± 0.883 mL/min/kg
Cmax ([2]; 20 mg/kg): 7.48 ± 0.40 µg/mL
Tmax ([2]; 20 mg/kg): 6 h
AUCINF—obs ([2]; 30 mg/kg): 87.2 ± 14.6 µg·h/mL
CL ([2]; 30 mg/kg): 6.03 ± 1.02 mL/min/kg
Cmax ([2]; 30 mg/kg): 13.9 ± 1.3 µg/mL
T1/2 ([2]; 30 mg/kg): 6.9 ± 0.8 h
Tmax ([2]; 30 mg/kg): 6 h
preventing or reducing mortality (ECTV): highly effective in preventing or reducing mortality
toxicity in animal model (ECTV): nontoxic
bioavailability (in vivo [3]; female, BALB/c (oral), CD-1 (IV), mouse, 30 mg/kg): ~41%
AUC(0-t) (in vivo [3]; female, BALB/c, mouse, 2.3 mg/kg, AUC0-24): 87.8 µg·h/mL
Cmax (in vivo [3]; female, BALB/c, mouse, 2.3 mg/kg, Cmax): 22.4 µg/mL
AUC(0-t) (in vivo [3]; female, BALB/c, mouse, 3 mg/kg, AUC0-24): 100 µg·h/mL
Cmax (in vivo [3]; female, BALB/c, mouse, 3 mg/kg, Cmax): 78.4 µg/mL
AUC(0-t) (in vivo [3]; female, BALB/c, mouse, 7.6 mg/kg, AUC0-24): 218 µg·h/mL
Cmax (in vivo [3]; female, BALB/c, mouse, 7.6 mg/kg, Cmax): 37.6 µg/mL
AUC(0-t) (in vivo [3]; female, BALB/c, mouse, 30 mg/kg, AUC0-24): 300 µg·h/mL
Cmax (in vivo [3]; female, BALB/c, mouse, 30 mg/kg, Cmax): 149 µg/mL
AUC(0-t) (in vivo [3]; female, BALB/c, mouse, 34.3 mg/kg, AUC0-24): 873 µg·h/mL
Cmax (in vivo [3]; female, BALB/c, mouse, 34.3 mg/kg, Cmax): 162 µg/mL
half-life (in vivo [3]; female, CD-1, mouse): 2.5 to 4.5 h
clearance (in vivo [3]; female, CD-1, mouse, 3 mg/kg): 0.717 mL/min/kg
half-life (in vivo [3]; female, CD-1, mouse, 3 mg/kg): 4.5 h
AUC(0-t) (in vivo [3]; female, CD-1, mouse, 3 mg/kg, AUC0-24): 67.9 µg·h/mL
AUC(0-t) (in vivo [3]; female, CD-1, mouse, 3 mg/kg, AUC0-24 hr): 68 µg·h/mL
Cmax (in vivo [3]; female, CD-1, mouse, 3 mg/kg, Cmax): 16.7 µg/mL
clearance (in vivo [3]; female, CD-1, mouse, 10 mg/kg): 0.417 mL/min/kg
half-life (in vivo [3]; female, CD-1, mouse, 10 mg/kg): 2.8 h
AUC(0-t) (in vivo [3]; female, CD-1, mouse, 10 mg/kg, AUC0-24): 408 µg·h/mL
AUC(0-t) (in vivo [3]; female, CD-1, mouse, 10 mg/kg, AUC0-24 hr): 408 µg·h/mL
Cmax (in vivo [3]; female, CD-1, mouse, 10 mg/kg, Cmax): 63.5 µg/mL
clearance (in vivo [3]; female, CD-1, mouse, 30 mg/kg): 0.7 mL/min/kg
half-life (in vivo [3]; female, CD-1, mouse, 30 mg/kg): 2.5 h
AUC(0-t) (in vivo [3]; female, CD-1, mouse, 30 mg/kg, AUC0-24): 709 µg·h/mL
AUC(0-t) (in vivo [3]; female, CD-1, mouse, 30 mg/kg, AUC0-24 hr): 709 µg·h/mL
Cmax (in vivo [3]; female, CD-1, mouse, 30 mg/kg, Cmax): 127 µg/mL
clearance (in vivo [3]; female, CD-1, mouse, 75 mg/kg): 1 mL/min/kg
half-life (in vivo [3]; female, CD-1, mouse, 75 mg/kg): 2.8 h
AUC(0-t) (in vivo [3]; female, CD-1, mouse, 75 mg/kg, AUC0-24): 1250 µg·h/mL
AUC(0-t) (in vivo [3]; female, CD-1, mouse, 75 mg/kg, AUC0-24 hr): 1250 µg·h/mL
Cmax (in vivo [3]; female, CD-1, mouse, 75 mg/kg, Cmax): 238 µg/mL
Cmax (in vivo [3]; female, CD-1, mouse, 75 mg/kg, mean Cmax): 238 µg/mL
Cmax (in vivo [3]; female, mouse, 30 mg/kg, Cmax): 120 µg/mL
AUC(0-t) (in vivo [3]; male, BALB/c, mouse, 2.3 mg/kg, AUC0-24): 73.3 µg·h/mL
Cmax (in vivo [3]; male, BALB/c, mouse, 2.3 mg/kg, Cmax): 20 µg/mL
AUC(0-t) (in vivo [3]; male, BALB/c, mouse, 7.6 mg/kg, AUC0-24): 170 µg·h/mL
Cmax (in vivo [3]; male, BALB/c, mouse, 7.6 mg/kg, Cmax): 53.8 µg/mL
AUC(0-t) (in vivo [3]; male, BALB/c, mouse, 34.3 mg/kg, AUC0-24): 798 µg·h/mL
Cmax (in vivo [3]; male, BALB/c, mouse, 34.3 mg/kg, Cmax): 191 µg/mL
solubility (physchem): 21.2 mg/mL (≈ 56.4 mM)
time to recovery ([4]; female, CD-1, mouse, iv, 75 mg/kg): 2 to 3 h
tolerability ([4]; mouse): well-tolerated
toxicity after bolus IV injection ([4]; mouse, iv, 34 mg/kg): some dose-related toxicity and mortality
clinical signs ([4]; mouse, iv, 75 mg/kg): unsteady gait
clinical signs ([4]; mouse, iv, 100 mg/kg): clinical signs of labored breathing and lethargy
EC50 (camelpox): ≤ 70 nM
AUC(0-t) (in vivo [5]): 1.88 ± 0.455 µg·h/mL
AUC(0-inf) (in vivo [5]; AUCINF—obs): 1.94 ± 0.459 µg·h/mL
clearance (in vivo [5]; CL): 8.95 mL/min/kg
